Source: the NIST ThermoML archive (doi:10.1007/s10765-005-5570-x)

Assay: xn = mol fraction of the nth substance listed
Details: Liquid

ClCCCl [1,2-dichloroethane] + CCOC(C)=O
Details | mass density [kg/m3]
288.15 K, 101.33 kPa, x1 = 0.1036 | 936.39
288.15 K, 101.33 kPa, x1 = 0.2054 | 966.98
288.15 K, 101.33 kPa, x1 = 0.3019 | 996.99
288.15 K, 101.33 kPa, x1 = 0.4003 | 1028.99
288.15 K, 101.33 kPa, x1 = 0.4963 | 1061.48
288.15 K, 101.33 kPa, x1 = 0.602 | 1098.83
288.15 K, 101.33 kPa, x1 = 0.682 | 1128.5
288.15 K, 101.33 kPa, x1 = 0.8002 | 1174.96
288.15 K, 101.33 kPa, x1 = 0.9001 | 1216.19
288.15 K, 101.33 kPa, x1 = 1 | 1260.13
298.15 K, 101.33 kPa, x1 = 0.1036 | 924.54
298.15 K, 101.33 kPa, x1 = 0.2054 | 954.82
298.15 K, 101.33 kPa, x1 = 0.3019 | 984.84
298.15 K, 101.33 kPa, x1 = 0.4003 | 1016.64
298.15 K, 101.33 kPa, x1 = 0.4963 | 1048.95
298.15 K, 101.33 kPa, x1 = 0.602 | 1086.09
298.15 K, 101.33 kPa, x1 = 0.682 | 1115.64
298.15 K, 101.33 kPa, x1 = 0.8002 | 1161.78
298.15 K, 101.33 kPa, x1 = 0.9001 | 1202.79
298.15 K, 101.33 kPa, x1 = 1 | 1246.59
298.15 K, 200 kPa, x1 = 0.2995 | 983.88
298.15 K, 200 kPa, x1 = 0.5013 | 1046.97
298.15 K, 200 kPa, x1 = 0.6994 | 1120.18
298.15 K, 500 kPa, x1 = 0.2995 | 984.27
298.15 K, 600 kPa, x1 = 0.5013 | 1047.36
298.15 K, 600 kPa, x1 = 0.6994 | 1120.72
298.15 K, 1100 kPa, x1 = 0.5013 | 1047.97
298.15 K, 1200 kPa, x1 = 0.2995 | 985.01
298.15 K, 1200 kPa, x1 = 0.6994 | 1121.21
298.15 K, 2100 kPa, x1 = 0.5013 | 1049.05
298.15 K, 2100 kPa, x1 = 0.6994 | 1122.19
298.15 K, 2300 kPa, x1 = 0.2995 | 986.02
298.15 K, 2900 kPa, x1 = 0.2995 | 986.78
298.15 K, 3000 kPa, x1 = 0.6994 | 1122.99
298.15 K, 3200 kPa, x1 = 0.5013 | 1050.04
298.15 K, 3900 kPa, x1 = 0.5013 | 1050.82
298.15 K, 4000 kPa, x1 = 0.2995 | 987.78
298.15 K, 4000 kPa, x1 = 0.6994 | 1124.04
298.15 K, 4800 kPa, x1 = 0.5013 | 1051.57
298.15 K, 4800 kPa, x1 = 0.6994 | 1124.91
298.15 K, 5000 kPa, x1 = 0.2995 | 988.82
298.15 K, 5900 kPa, x1 = 0.2995 | 989.64
298.15 K, 6100 kPa, x1 = 0.5013 | 1052.93
298.15 K, 6100 kPa, x1 = 0.6994 | 1126.11
298.15 K, 6900 kPa, x1 = 0.2995 | 990.62
298.15 K, 7000 kPa, x1 = 0.6994 | 1126.84
298.15 K, 7100 kPa, x1 = 0.5013 | 1053.82
298.15 K, 7800 kPa, x1 = 0.2995 | 991.51
298.15 K, 7800 kPa, x1 = 0.5013 | 1054.57
298.15 K, 8000 kPa, x1 = 0.6994 | 1127.94
298.15 K, 8600 kPa, x1 = 0.2995 | 992.31
298.15 K, 8800 kPa, x1 = 0.6994 | 1128.76
298.15 K, 9000 kPa, x1 = 0.5013 | 1055.76
298.15 K, 9800 kPa, x1 = 0.5013 | 1056.47
298.15 K, 9900 kPa, x1 = 0.2995 | 993.71
298.15 K, 9900 kPa, x1 = 0.6994 | 1129.84
298.15 K, 11700 kPa, x1 = 0.2995 | 995.34
298.15 K, 11900 kPa, x1 = 0.5013 | 1058.45
298.15 K, 12000 kPa, x1 = 0.6994 | 1131.77
298.15 K, 13700 kPa, x1 = 0.6994 | 1133.5
298.15 K, 13800 kPa, x1 = 0.2995 | 997.35
298.15 K, 13800 kPa, x1 = 0.5013 | 1060.29
298.15 K, 15600 kPa, x1 = 0.6994 | 1135.23
298.15 K, 15900 kPa, x1 = 0.2995 | 999.26
298.15 K, 15900 kPa, x1 = 0.5013 | 1062.3
298.15 K, 17700 kPa, x1 = 0.6994 | 1137.32
298.15 K, 17900 kPa, x1 = 0.2995 | 1001.14
298.15 K, 18000 kPa, x1 = 0.5013 | 1064.25
298.15 K, 19400 kPa, x1 = 0.2995 | 1002.51
298.15 K, 19600 kPa, x1 = 0.6994 | 1139.1
298.15 K, 19900 kPa, x1 = 0.5013 | 1065.99
308.15 K, 101.33 kPa, x1 = 0.1036 | 911.53
308.15 K, 101.33 kPa, x1 = 0.2054 | 941.7
308.15 K, 101.33 kPa, x1 = 0.3019 | 971.32
308.15 K, 101.33 kPa, x1 = 0.4003 | 1002.93
308.15 K, 101.33 kPa, x1 = 0.4963 | 1035.07
308.15 K, 101.33 kPa, x1 = 0.602 | 1071.98
308.15 K, 101.33 kPa, x1 = 0.682 | 1101.3
308.15 K, 101.33 kPa, x1 = 0.8002 | 1147.08
308.15 K, 101.33 kPa, x1 = 0.9001 | 1187.86
308.15 K, 101.33 kPa, x1 = 1 | 1231.27

ClCCBr [1-bromo-2-chloroethane] + CCOC(C)=O
Details | mass density [kg/m3]
288.15 K, 101.33 kPa, x1 = 0.108 | 984.97
288.15 K, 101.33 kPa, x1 = 0.1985 | 1051.71
288.15 K, 101.33 kPa, x1 = 0.2997 | 1128.56
288.15 K, 101.33 kPa, x1 = 0.3988 | 1205.99
288.15 K, 101.33 kPa, x1 = 0.5008 | 1288.67
288.15 K, 101.33 kPa, x1 = 0.5477 | 1327.76
288.15 K, 101.33 kPa, x1 = 0.6462 | 1412.26
288.15 K, 101.33 kPa, x1 = 0.7653 | 1518.63
288.15 K, 101.33 kPa, x1 = 0.803 | 1553.45
288.15 K, 101.33 kPa, x1 = 0.905 | 1650.02
288.15 K, 101.33 kPa, x1 = 1 | 1744.36
298.15 K, 101.33 kPa, x1 = 0.108 | 972.55
298.15 K, 101.33 kPa, x1 = 0.1985 | 1039.06
298.15 K, 101.33 kPa, x1 = 0.2997 | 1115.49
298.15 K, 101.33 kPa, x1 = 0.3988 | 1192.41
298.15 K, 101.33 kPa, x1 = 0.5008 | 1274.57
298.15 K, 101.33 kPa, x1 = 0.5477 | 1313.32
298.15 K, 101.33 kPa, x1 = 0.6462 | 1397.28
298.15 K, 101.33 kPa, x1 = 0.7653 | 1503.13
298.15 K, 101.33 kPa, x1 = 0.803 | 1537.71
298.15 K, 101.33 kPa, x1 = 0.905 | 1634.03
298.15 K, 101.33 kPa, x1 = 1 | 1727.88
298.15 K, 200 kPa, x1 = 0.2995 | 1115.91
298.15 K, 200 kPa, x1 = 0.5013 | 1278.27
298.15 K, 200 kPa, x1 = 0.6994 | 1442.43
298.15 K, 500 kPa, x1 = 0.2995 | 1116.35
298.15 K, 600 kPa, x1 = 0.6994 | 1443.12
298.15 K, 700 kPa, x1 = 0.5013 | 1278.85
298.15 K, 1100 kPa, x1 = 0.6994 | 1443.6
298.15 K, 1200 kPa, x1 = 0.2995 | 1117.05
298.15 K, 1200 kPa, x1 = 0.5013 | 1279.48
298.15 K, 2100 kPa, x1 = 0.2995 | 1118.11
298.15 K, 2100 kPa, x1 = 0.5013 | 1280.34
298.15 K, 2100 kPa, x1 = 0.6994 | 1444.65
298.15 K, 2900 kPa, x1 = 0.6994 | 1445.74
298.15 K, 3000 kPa, x1 = 0.2995 | 1119.13
298.15 K, 3000 kPa, x1 = 0.5013 | 1281.5
298.15 K, 4000 kPa, x1 = 0.2995 | 1120.19
298.15 K, 4000 kPa, x1 = 0.5013 | 1282.56
298.15 K, 4100 kPa, x1 = 0.6994 | 1447.07
298.15 K, 5000 kPa, x1 = 0.2995 | 1121.32
298.15 K, 5000 kPa, x1 = 0.5013 | 1283.71
298.15 K, 5100 kPa, x1 = 0.6994 | 1448.15
298.15 K, 5800 kPa, x1 = 0.2995 | 1122.17
298.15 K, 5800 kPa, x1 = 0.6994 | 1448.98
298.15 K, 5900 kPa, x1 = 0.5013 | 1284.8
298.15 K, 7000 kPa, x1 = 0.5013 | 1285.84
298.15 K, 7000 kPa, x1 = 0.6994 | 1450.32
298.15 K, 7100 kPa, x1 = 0.2995 | 1123.21
298.15 K, 7700 kPa, x1 = 0.6994 | 1451.09
298.15 K, 7900 kPa, x1 = 0.2995 | 1124.37
298.15 K, 8000 kPa, x1 = 0.5013 | 1286.92
298.15 K, 8600 kPa, x1 = 0.2995 | 1125.17
298.15 K, 8700 kPa, x1 = 0.5013 | 1287.86
298.15 K, 8800 kPa, x1 = 0.6994 | 1452.5
298.15 K, 10100 kPa, x1 = 0.2995 | 1126.71
298.15 K, 10100 kPa, x1 = 0.5013 | 1289.28
298.15 K, 10300 kPa, x1 = 0.6994 | 1454.22
298.15 K, 11700 kPa, x1 = 0.2995 | 1128.38
298.15 K, 12000 kPa, x1 = 0.5013 | 1291.48
298.15 K, 12000 kPa, x1 = 0.6994 | 1456.29
298.15 K, 13700 kPa, x1 = 0.5013 | 1293.44
298.15 K, 13800 kPa, x1 = 0.2995 | 1130.67
298.15 K, 14000 kPa, x1 = 0.6994 | 1458.57
298.15 K, 15500 kPa, x1 = 0.5013 | 1295.42
298.15 K, 15900 kPa, x1 = 0.2995 | 1132.71
298.15 K, 15900 kPa, x1 = 0.6994 | 1460.86
298.15 K, 17400 kPa, x1 = 0.6994 | 1462.58
298.15 K, 17700 kPa, x1 = 0.2995 | 1134.48
298.15 K, 17900 kPa, x1 = 0.5013 | 1298.2
298.15 K, 19200 kPa, x1 = 0.6994 | 1464.86
298.15 K, 19700 kPa, x1 = 0.2995 | 1136.76
298.15 K, 19800 kPa, x1 = 0.5013 | 1300.25
308.15 K, 101.33 kPa, x1 = 0.108 | 959.03
308.15 K, 101.33 kPa, x1 = 0.1985 | 1024.94
308.15 K, 101.33 kPa, x1 = 0.2997 | 1100.59
308.15 K, 101.33 kPa, x1 = 0.3988 | 1177.02
308.15 K, 101.33 kPa, x1 = 0.5008 | 1258.55
308.15 K, 101.33 kPa, x1 = 0.5477 | 1296.96
308.15 K, 101.33 kPa, x1 = 0.6462 | 1380.36
308.15 K, 101.33 kPa, x1 = 0.7653 | 1485.56
308.15 K, 101.33 kPa, x1 = 0.803 | 1519.81
308.15 K, 101.33 kPa, x1 = 0.905 | 1615.55
308.15 K, 101.33 kPa, x1 = 1 | 1708.86
